# Results: patent US20100298141A1, “SUBSTITUTED PYRIDINE N-OXIDE HERBICIDES” (E. I. DU PONT DE NEMOURS AND COMPANY, priority 2007, published 2010)
# How the values were obtained:
# barnyardgrass [1] = test: Test F preemergence test; format: in vivo, Echinochloa crus-galli
# From the text: (§1) Seeds of plant species selected from bermudagrass (Cynodon dactylon), Surinam grass (Brachiaria decumbens), large crabgrass (Digitaria sanguinalis), green foxtail (Setaria viridis), goosegrass (Eleusine indica), johnsongrass (Sorghum halepense), kochia (Kochia scoparia), pitted morningglory (Ipomoea lacunosa), purple nutsedge (Cyperus rotundus), common ragweed (Ambrosia elation), mustard (Brassica nigra), guineagrass (Panicum maximum), […] (Paspalum dilatatum), barnyardgrass (Echinochloa crus-galli), southern sandbur (Cenchrus echinatus), common sowthistle (Sonchus oleraceous), prickly […] spinosa), Italian ryegrass (Lolium multiflorum), common purslane (Portulaca oleracea), broadleaf signalgrass (Brachiaria platyphylla), common groundsel (Senecio vulgaris), common chickweed (Stellaria media), Virginia dayflower (Commelina virginica), annual bluegrass (Poa annua), naked crabgrass (Digitaria nuda), […] cochinchinensis), quackgrass (Elytrigia repens), Canada horseweed (Conyza canadensis), field bindweed (Convolvulus arvensis), […] (Bidens bipinnata), common mallow (Malva sylvestris), Russian thistle (Salsola kali), and sugarcane (Saccharum officinarum) were planted and treated preemergence with test chemicals formulated in a non-phytotoxic solvent mixture which included a surfactant. At a different time, sugarcane was treated with postemergence applications of some of the test chemicals formulated in the same manner. Plants were approximately 3- to 4-leaf stage for the postemergence treatments. Treated plants and controls were maintained in a greenhouse for 14 to 21 days, after which time all species were compared to controls and visually evaluated. […] A dash (-) response means no test result.
# field bindweed = test: Test F preemergence test; format: in vivo, Convolvulus arvensis; conditions: scale 0 to 100
# From the text: as §1
# green foxtail = test: Test F preemergence test; format: in vivo, Setaria viridis; conditions: scale 0 to 100
# From the text: as §1
# Virginia dayflower = test: Test F preemergence test; format: in vivo, Commelina virginica; conditions: scale 0 to 100
# From the text: as §1
# kochia = test: Test C pre-/postemergence test; format: in vivo, Kochia scoparia
# In short: (§2)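 Compounds in a non-phytotoxic solvent with surfactant applied preemergence to seeded pots and, at the same time, postemergence to plants 2–18 cm tall (1- to 4-leaf stage). Paddy tests: pots flooded to 3 cm, compound applied into the water, depth held throughout.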
# cocklebur = test: Test C pre-/postemergence test; format: in vivo, Xanthium strumarium
# In short: as §2
# velvetleaf = test: Test C pre-/postemergence test; format: in vivo, Abutilon theophrasti
# In short: as §2
# barnyardgrass [2] = test: Test A pre-/postemergence greenhouse test; format: in vivo, Echinochloa crus-galli; conditions: for Plant response rating, Barnyardgrass: 0 to 100 scale where 0 is no effect and 100 is complete control; for Barnyardgrass plant response rating: 0 to 100 scale
# In short: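 Pots of loam–sand soil sown with the test species are sprayed preemergence on the soil surface; emerged seedlings (1–2 leaves, 2–10 cm) are sprayed postemergence at the same time. The vehicle is a non-phytotoxic solvent mixture with surfactant. Injury is scored visually after ~10 d in greenhouse.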
# dallisgrass = test: Test F preemergence test; format: in vivo, Paspalum dilatatum; conditions: scale 0 to 100
# From the text: as §1
# broadleaf signalgrass = test: Test F preemergence test; format: in vivo, Brachiaria platyphylla; conditions: scale 0 to 100
# From the text: as §1
# itchgrass = test: Test F preemergence test; format: in vivo, Rottboellia cochinchinensis; conditions: scale 0 to 100; for Plant response rating, Itchgrass: Preemergence
# From the text: as §1
# mustard = test: Test F preemergence test; format: in vivo, Brassica nigra; conditions: scale 0 to 100
# From the text: as §1
# annual bluegrass = test: Test F preemergence test; format: in vivo, Poa annua; conditions: scale 0 to 100
# From the text: as §1
# [3] = 62 g ai/ha, Preemergence, scale 0 to 100
# [4] = 125 g ai/ha, preemergence, scale 0 (no effect) to 100 (complete control)
# [5] = Postemergence, 125 g ai/ha, scale 0 to 100, 0 no effect, 100 complete control
# [6] = Postemergence, 250 g ai/ha, scale 0 to 100, 0 no effect, 100 complete control
# [7] = Preemergence, 31 g ai/ha, scale 0 to 100 (0 no effect, 100 complete control)
# [8] = preemergence, 250 g ai/ha, scale 0 (no effect) to 100 (complete control)
compound,measurement,setting,value
CC(Oc1c(CS(=O)(=O)c2cccc[n+]2[O-])c(C(F)(F)F)nn1C)C(F)(F)F (stereo not shown) [Compound 82],"Plant response rating, Barnyardgrass","barnyardgrass [1]; 16 g ai/ha, preemergence, scale 0 to 100 (0 no effect, 100 complete control)",50
same,Barnyardgrass plant response rating,"barnyardgrass [1]; 125 g ai/ha, preemergence, scale 0 to 100",100
same,"Plant response rating, Barnyardgrass","barnyardgrass [1]; Preemergence, 62 g ai/ha, scale 0 to 100",80
same,"Plant response rating, Barnyardgrass","barnyardgrass [1]; Preemergence, 31 g ai/ha, scale 0 to 100",70
same,"Plant response rating, Field Bindweed","field bindweed; 16 g ai/ha, preemergence",0
same,Field Bindweed plant response rating,"field bindweed; 125 g ai/ha, preemergence",0
same,"Plant response rating, Field Bindweed","field bindweed; Preemergence, 62 g ai/ha",0
same,"Plant response rating, Field Bindweed","field bindweed; Preemergence, 31 g ai/ha",0
same,"Plant response rating, Foxtail, Green","green foxtail; 16 g ai/ha, preemergence",30
same,"Foxtail, Green plant response rating","green foxtail; 125 g ai/ha, preemergence",95
same,"Plant response rating, Foxtail, Green","green foxtail; Preemergence, 62 g ai/ha",95
same,"Plant response rating, Foxtail, Green","green foxtail; Preemergence, 31 g ai/ha",95
same,Dayflower plant response rating,"Virginia dayflower; 125 g ai/ha, preemergence",100
same,"Plant response rating, Dayflower","Virginia dayflower; Preemergence, 62 g ai/ha",90
same,Kochia plant response rating,kochia; [3],100
same,Kochia plant response rating,kochia; [4],100
same,"Plant response rating (0 to 100), Kochia","kochia; Postemergence, 31 g ai/ha",0
same,"Plant response rating (0 to 100), Kochia","kochia; Postemergence, 62 g ai/ha",0
same,"Plant response rating, Kochia",kochia; [5],0
same,"Plant response rating, Kochia",kochia; [6],0
same,"Plant response rating, Kochia",kochia; [7],100
same,Kochia plant response rating,kochia; [8],100
same,Cocklebur plant response rating,cocklebur; [3],0
same,Cocklebur plant response rating,cocklebur; [4],0
same,"Plant response rating (0 to 100), Cocklebur","cocklebur; Postemergence, 31 g ai/ha",0
same,"Plant response rating (0 to 100), Cocklebur","cocklebur; Postemergence, 62 g ai/ha",0
same,"Plant response rating, Cocklebur",cocklebur; [5],0
same,"Plant response rating, Cocklebur",cocklebur; [6],0
same,"Plant response rating, Cocklebur",cocklebur; [7],0
same,Cocklebur plant response rating,cocklebur; [8],0
same,Velvetleaf plant response rating,velvetleaf; [3],80
same,Velvetleaf plant response rating,velvetleaf; [4],80
same,"Plant response rating (0 to 100), Velvetleaf","velvetleaf; Postemergence, 31 g ai/ha",0
same,"Plant response rating (0 to 100), Velvetleaf","velvetleaf; Postemergence, 62 g ai/ha",0
same,"Plant response rating, Velvetleaf",velvetleaf; [5],0
same,"Plant response rating, Velvetleaf",velvetleaf; [6],20
same,"Plant response rating, Velvetleaf",velvetleaf; [7],0
same,Velvetleaf plant response rating,velvetleaf; [8],100
same,"Plant response rating, Barnyardgrass","barnyardgrass [2]; Postemergence, 125 g ai/ha",70
same,Barnyardgrass plant response rating,"barnyardgrass [2]; Postemergence, 500 g ai/ha, 0 is no effect, 100 is complete control",80
same,Barnyardgrass plant response rating,"barnyardgrass [2]; Preemergence, 125 g ai/ha, 0 no effect, 100 complete control",90
same,"Plant response rating, Barnyardgrass","barnyardgrass [2]; Preemergence, 500 g ai/ha",100
same,"Plant response rating, Dallisgrass","dallisgrass; 16 g ai/ha, preemergence",20
same,Dallisgrass plant response rating,"dallisgrass; 125 g ai/ha, preemergence",90
same,"Plant response rating, Dallisgrass","dallisgrass; Preemergence, 62 g ai/ha",40
same,"Plant response rating, Dallisgrass","dallisgrass; Preemergence, 31 g ai/ha",20
same,"Plant response rating, Signalgrass","broadleaf signalgrass; 16 g ai/ha, preemergence",50
same,Signalgrass plant response rating,"broadleaf signalgrass; 125 g ai/ha, preemergence",100
same,"Plant response rating, Signalgrass","broadleaf signalgrass; Preemergence, 62 g ai/ha",100
same,"Plant response rating, Signalgrass","broadleaf signalgrass; Preemergence, 31 g ai/ha",50
same,Itchgrass plant response rating,"itchgrass; 125 g ai/ha, preemergence",70
same,"Plant response rating, Itchgrass",itchgrass; 62 g ai/ha,60
same,"Plant response rating, Itchgrass",itchgrass; 31 g ai/ha,0
same,"Plant response rating, Black Mustard","mustard; 16 g ai/ha, preemergence",0
same,Black Mustard plant response rating,"mustard; 125 g ai/ha, preemergence",100
same,"Plant response rating, Black Mustard","mustard; Preemergence, 62 g ai/ha",50
same,"Plant response rating, Black Mustard","mustard; Preemergence, 31 g ai/ha",0
same,"Plant response rating, Bluegrass","annual bluegrass; 16 g ai/ha, preemergence",0
same,Bluegrass plant response rating,"annual bluegrass; 125 g ai/ha, preemergence",100
same,"Plant response rating, Bluegrass","annual bluegrass; Preemergence, 62 g ai/ha",70
same,"Plant response rating, Bluegrass","annual bluegrass; Preemergence, 31 g ai/ha",60
